Consider 1 compound from ChEMBL document CHEMBL5620374, “Synthesis and bioevaluation of novel stilbene-based derivatives as tubulin/HDAC dual-target inhibitors with potent antitumor activities in vitro and in vivo” (Eur J Med Chem, 2023).

The test system of data set [1] is K562. The experiment in a line: Induction of apoptosis in human K562 cells assessed as necrotic cells at 8 nM incubated for 48 hrs by Annexin V/PI staining based flow cytometry (reference value: 2.56 +/- 0.22 %). It counts as functional. Background: Flow cytometry measures light scatter and fluorescence of single cells or particles in a stream.
The test system of the next data set is MDA-MB-231. Description: cells. The conditions noted are these: Homo sapiens, MDA-MB-231, 72 h.
The nature of data set [2]: Toxicity in ICR mouse allografted with mouse H22 cells assessed as toxic sign in spleen at 10 to 20 mg/kg, iv qd for 17 days consecutively by H and E staining based analysis. In kind it is organism-based. The settings on record: in vivo, dose 10-20 mg/kg, time 17 day.
In the next data set the test system is A2780. The experiment in a line: cells. The settings on record: Homo sapiens, A2780, 72 h.
Data set [3] concerns K562. The experiment in a line: Inhibition of mitochondrial membrane potential in human K562 cells assessed as red fluorescence intensity at 4 nM incubated for 48 hrs by JC-1 staining based flow cytometry (reference value: 93.36 +/- 0.21 %). In kind it is functional.
Data set [4] concerns the target T1, Protein deacetylase HDAC6 (Homo sapiens, UniProt Q9UBN7).
T1 sequence (Q9UBN7 whole entry): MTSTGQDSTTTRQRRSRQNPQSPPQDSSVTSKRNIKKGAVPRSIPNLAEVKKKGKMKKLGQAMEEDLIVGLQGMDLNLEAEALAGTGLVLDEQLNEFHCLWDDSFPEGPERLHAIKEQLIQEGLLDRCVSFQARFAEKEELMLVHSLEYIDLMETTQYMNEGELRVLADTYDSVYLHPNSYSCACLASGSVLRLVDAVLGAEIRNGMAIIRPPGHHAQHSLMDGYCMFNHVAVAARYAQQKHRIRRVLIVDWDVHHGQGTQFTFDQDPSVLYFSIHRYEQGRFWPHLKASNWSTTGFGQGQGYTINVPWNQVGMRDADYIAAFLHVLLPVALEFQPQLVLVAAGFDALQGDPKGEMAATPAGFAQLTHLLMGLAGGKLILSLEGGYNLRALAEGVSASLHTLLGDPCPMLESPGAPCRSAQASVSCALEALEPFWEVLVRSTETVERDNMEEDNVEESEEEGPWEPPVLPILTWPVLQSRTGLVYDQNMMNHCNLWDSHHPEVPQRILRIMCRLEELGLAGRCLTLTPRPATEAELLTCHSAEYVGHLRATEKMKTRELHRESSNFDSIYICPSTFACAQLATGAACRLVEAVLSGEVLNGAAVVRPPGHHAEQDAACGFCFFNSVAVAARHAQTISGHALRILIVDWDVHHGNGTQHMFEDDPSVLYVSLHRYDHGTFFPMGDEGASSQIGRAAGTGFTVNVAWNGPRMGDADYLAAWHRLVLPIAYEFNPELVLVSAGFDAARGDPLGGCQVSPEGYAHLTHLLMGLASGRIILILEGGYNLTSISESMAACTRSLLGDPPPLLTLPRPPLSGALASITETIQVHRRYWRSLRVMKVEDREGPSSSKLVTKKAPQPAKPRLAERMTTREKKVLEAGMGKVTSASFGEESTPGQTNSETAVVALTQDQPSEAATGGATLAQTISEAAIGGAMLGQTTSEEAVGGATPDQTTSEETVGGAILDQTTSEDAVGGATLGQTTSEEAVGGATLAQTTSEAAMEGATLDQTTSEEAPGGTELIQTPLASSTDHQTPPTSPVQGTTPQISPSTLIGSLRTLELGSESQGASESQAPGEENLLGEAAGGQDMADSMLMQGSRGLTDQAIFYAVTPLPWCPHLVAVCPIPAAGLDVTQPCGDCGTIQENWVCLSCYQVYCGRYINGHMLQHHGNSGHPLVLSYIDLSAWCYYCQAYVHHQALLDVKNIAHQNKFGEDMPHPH
Description: Inhibition of HDAC6 derived from human HeLa cell extract using Ac-Leu-Gly-Lys (Ac)-AMC as substrate by fluorescence based assay. In kind it is cell-free.

For another data set, the target named is T2, Histone deacetylase 7 (Homo sapiens, UniProt Q8WUI4).
T2 sequence (Q8WUI4 whole entry): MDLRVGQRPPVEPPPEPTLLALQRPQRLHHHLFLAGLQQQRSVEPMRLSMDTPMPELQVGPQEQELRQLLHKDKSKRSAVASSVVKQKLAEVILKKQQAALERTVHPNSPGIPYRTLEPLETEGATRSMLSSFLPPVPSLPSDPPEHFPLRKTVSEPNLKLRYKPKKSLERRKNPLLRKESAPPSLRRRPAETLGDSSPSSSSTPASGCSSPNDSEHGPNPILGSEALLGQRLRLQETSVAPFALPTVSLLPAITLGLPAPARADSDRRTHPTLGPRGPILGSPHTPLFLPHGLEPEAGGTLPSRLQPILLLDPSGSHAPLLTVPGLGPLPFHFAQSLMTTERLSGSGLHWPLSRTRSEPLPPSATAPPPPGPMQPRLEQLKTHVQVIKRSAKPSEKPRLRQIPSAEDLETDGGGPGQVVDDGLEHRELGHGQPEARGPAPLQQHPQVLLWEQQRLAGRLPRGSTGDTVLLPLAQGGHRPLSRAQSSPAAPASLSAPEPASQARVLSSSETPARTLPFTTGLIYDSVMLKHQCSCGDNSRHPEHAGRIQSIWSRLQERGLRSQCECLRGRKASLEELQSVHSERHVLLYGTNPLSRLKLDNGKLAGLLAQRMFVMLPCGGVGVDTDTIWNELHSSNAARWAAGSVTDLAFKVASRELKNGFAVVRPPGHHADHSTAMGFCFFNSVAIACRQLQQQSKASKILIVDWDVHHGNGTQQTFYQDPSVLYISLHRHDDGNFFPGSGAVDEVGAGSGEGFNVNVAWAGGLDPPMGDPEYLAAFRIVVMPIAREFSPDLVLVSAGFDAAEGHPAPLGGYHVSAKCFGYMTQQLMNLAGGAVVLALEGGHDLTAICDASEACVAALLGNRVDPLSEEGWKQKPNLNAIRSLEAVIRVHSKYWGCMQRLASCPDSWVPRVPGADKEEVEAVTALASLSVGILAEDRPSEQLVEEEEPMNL
Description: Inhibition of HDAC7 derived from human HeLa cell extract using Ac-Leu-Gly-Lys (Ac)-AMC as substrate by fluorescence based assay. In kind it is cell-free.

The test system of data set [5] is K562. The experiment in a line: Induction of apoptosis in human K562 cells assessed as increase in Bad level incubated for 24 hrs by Western blot analysis. It counts as functional, cell-based. The conditions noted are these: dose 2-8 nM. For orientation: Immunoblotting shows a protein as a band on a membrane.
Another data set addresses Tubulin (Homo sapiens) (UniProt P68371+Q9H4B7+P0DPH7+P68366+Q13509+Q71U36+P04350+Q3ZCM7+P07437+P68363+Q9BQE3+Q6PEY2+Q13885+Q9BVA1+Q9BUF5). The experiment in a line: Inhibition of tubulin polymerization in human K562 cells assessed as disruption of microtubule network at 2 to 8 nM by immunofluorescence based analysis. In kind it is cell-based. The settings on record: dose 2-8 nM.

For the next data set, the system named is H22. The experiment in a line: Antitumor activity against mouse H22 cells allografted in ICR mouse assessed as tumor growth inhibition at 10 mg/kg, iv qd for 17 days consecutively relative to control. The conditions noted are these: time 17 day, read-out: TGI. It counts as functional.
In data set [6] the test system is K562. The experiment in a line: Inhibition of mitochondrial membrane potential in human K562 cells assessed as green fluorescence intensity at 2 nM incubated for 48 hrs by JC-1 staining based flow cytometry (reference value: 6.63 +/- 0.27 %). It counts as functional.

Activity calls are given as the source filed them. The calls are words filed in the database; no cut-off is given here. Bounds are passed on as bounds.

Description for A2780: Antiproliferative activity against human A2780 cells incubated for 72 hrs by MTT assay
Description for MDA-MB-231: Antiproliferative activity against human MDA-MB-231 cells incubated for 72 hrs by MTT assay

What is called IC50 is the concentration needed to halve the response being measured. A low value points to greater potency. Consider `C=C(c1ccc(OC)c(OC(F)C(=O)NO)c1)c1cc(C)nc2ccccc12` (stereo unspecified), for which the Activity with K562 [1] is 3.7%; in data set [2], “Non-Toxic”; with K562 [5] it was “Dose-Dependent Effect”. For the same compound, the concentration for half-maximal inhibition (IC50) is 11 nM in the data set on MDA-MB-231, 5 nM in the data set with A2780, 459 nM in data set [4] and > 10000 nM against Histone deacetylase 7. In addition, the Flu intensity with K562 [3] is given as 68.24%; in the data set on K562 [6], 17.63%. Also, the inhibition entry at Tubulin (Homo sapiens) is “Active”. Also, in the data set on H22, the inhibition in vivo at 10 mg/kg worked out at 48%.
